For data set [1] the following is noted: other reported oncolytic peptides; cited from earlier work.
In a further data set the test system is 4T1 cells. As to the kind of experiment: LDH release assay (CyQUANT) in 4T1 cells. The format is cell-based, murine. Particulars: pre-treated 50 μM inhibitor 30 minutes, then 100 μM CKS1 6 hours. As to the method:
FIG. 3A is a graph of cell viability of 4T1 murine triple negative breast cancer cells (TNBC) after 100 μM or 20 μM CKS1 treatment measured by real-time cell analyzer (RTCA). Means±SEM, representative of N=3. FIG. 3B is a graph of lactate dehydrogenase (LDH) release in 4T1 cells pre-treated with 50 μM pan-caspase inhibitor Z-VAD for 30 minutes or 50 μM RIPK1 inhibitor Nec-1s for 30 minutes then treated with 100 μM CKS1 for 6 hours. LDH release in the supernatant was measured by the CyQUANT LDH cytotoxicity assay. Means±SEM, N=3, Dunnett's test (***p<0.005). […] The release of LDH in the supernatant was measured and was normalized to the amount of LDH released from cells treated with lysis buffer. […]
FIG. 5A is a graph of the release of LDH in the supernatant measured after treating 4T1 cells with 100 μM of the indicated peptides for 6 hours. […]
To determine whether CKS1 functions as an oncolytic peptide, the cell viability of 4T1 murine breast cancer cells was observed after CKS1 treatment using xCELLigence Real-Time Cell Analyzer (Agilent). In this method, the binding of cells to gold electrodes is detected as electrical impedance and graphed as arbitrary units of cell index in real time. […] The release of lactate dehydrogenase (LDH) was also quantified in the culture media after CKS1 treatment. […]
(In general: LDH in the medium is a marker of cell lysis.)

A short description of another data set: Solubility in water. The format is physicochemical. The settings on record: data not shown. The text has this:
Peptides The peptides were synthesized by Genscript (Piscataway, NJ) using a solid-phase peptide synthesis technique. The purity was >90% as verified by HPLC and MS analyses. The peptides were solubilized in water.

The subject of a further data set is CT26 cells. As to the kind of experiment: LDH release assay in CT26 cells. The format is cell-based, murine. Particulars: CT26, 6 hours. Here is the method: (§1) FIG. 3A is a graph of cell viability of 4T1 murine triple negative breast cancer cells (TNBC) after 100 μM or 20 μM CKS1 treatment measured by real-time cell analyzer (RTCA). Means±SEM, representative of N=3. FIG. 3B is a graph of lactate dehydrogenase (LDH) release in 4T1 cells pre-treated with 50 μM pan-caspase inhibitor Z-VAD for 30 minutes or 50 μM RIPK1 inhibitor Nec-1s for 30 minutes then treated with 100 μM CKS1 for 6 hours. LDH release in the supernatant was measured by the CyQUANT LDH cytotoxicity assay. Means±SEM, N=3, Dunnett's test (***p<0.005). FIGS. 3C-3G are graphs of LDH release in human osteosarcoma U2OS cells, murine fibrosarcoma MCA205 cells, murine colon carcinoma CT26 cells, murine normal NIH/3T3 fibroblasts, and HUVECs, respectively, treated with the indicated concentration of CKS1 for 6 hours. The release of LDH in the supernatant was measured and was normalized to the amount of LDH released from cells treated with lysis buffer. Means±SEM, N=3, Dunnett's test (**p<0.01, ***p<0.005). FIG. 3H is a graph of the incorporation of BrdU in HUVECs treated with CKS1. Means±SEM, N=3, Dunnett's test (**p<0.01, ***p<0.005).
(§2) LDH assay 1.5×10^4 cells were seeded in a 96 well plate and incubated overnight. The cells were washed once, and the medium was replaced with serum free media. Cells were treated for the indicated time and concentration. […]

In data set [2] the test system is NIH/3T3 normal fibroblasts. As to the kind of experiment: LDH release assay in NIH/3T3 cells. The format is cell-based, murine. Particulars: 6 hours. Here is the method:
as §1, §2

In a further data set the test system is MCA205 cells. As to the kind of experiment: LDH release assay in MCA205 cells. Particulars: MCA205, 6 hours. The format is cell-based, murine. As to the method: as §1, §2
Another data set has as its system HUVECs. As to the kind of experiment: LDH release assay in HUVECs. The format is cell-based, human. The settings on record: 6 hours. As to the method: as §1, §2
The test system of the next data set is U2OS cells. As to the kind of experiment: LDH release assay in U2OS cells. Particulars: 6 hours. The format is cell-based, human. As to the method: as §1, §2
A further data set relates to healthy cells. As to the kind of experiment: LDH assay against cancer cells not included in NCI-60 and healthy cells. The format is cell-based. Here is the method:
LDH assay 1.5×10^4 cells were seeded in a 96 well plate and incubated overnight. The cells were washed once, and the medium was replaced with serum free media. Cells were treated for the indicated time and concentration. CyQUANT LDH cytotoxicity assay (Invitrogen, Carlsbad, CA) was used following the manufacturer's instructions.

Like-named read-outs stand apart in the source and are kept apart here. Square brackets hold non-standard residues; d marks the D form. Ends that are not written are not given here. Peptide text beside a SMILES is read from it. * marks the point of attachment. Dip = N[C@H](C(=O)O)C(c1ccccc1)c1ccccc1; Cbz = O=C(OCc1ccccc1)*; CH2F = FC*

As to `NCCCC[C@H](NC(=O)[C@@H](NC(=O)[C@H](Cc1c[nH]c2ccccc12)NC(=O)[C@H](CCCCN)NC(=O)[C@H](CCCCN)NC(=O)[C@H](Cc1c[nH]c2ccccc12)NC(=O)[C@H](Cc1c[nH]c2ccccc12)NC(=O)[C@H](CCCCN)NC(=O)[C@@H](N)CCCCN)C(c1ccccc1)c1ccccc1)C(N)=O` [LTX-315] (H-KKWWKKW[Dip]K-NH2), the solubility in water entry in [1] is recorded as “not soluble in water”. Regarding `CN1C(=O)NC(Cc2c[nH]c3c(Cl)cccc23)C1=O` (centres unmarked) [Nec-1s, necrostatin-1 stable], the “inhibition of CKS1-induced LDH release by pretreatment” value in the data set with 4T1 cells was “did not inhibit the release of LDH”. Turning to `CC(NC(=O)C(NC(=O)OCc1ccccc1)C(C)C)C(=O)NC(CC(=O)O)C(=O)CF` (stereo not drawn) [Z-VAD] (Cbz-Val-Ala-Asp-CH2F; configuration not given here), in the data set on 4T1 cells, the “inhibition of CKS1-induced LDH release by pretreatment” value is given as “did not inhibit the release of LDH”. “IVKKIIEKMLNS [SEQ ID NO: 42, IVKKIIEKMLNS]”: in the data set “Solubility in water”, the solubility in water entry is on record as “not soluble in water”. Take NGRKACLNPASPIVKKIIEKMLNS [CKS1]: the “cytotoxicity (LDH release)” value with CT26 cells, with MCA205 cells and in the data set with U2OS cells was “effective” throughout. In addition, the “cell death (LDH release) in normal cells” value (in data set [2]; in the data set with HUVECs) was “did not induce cell death” in each case. The solubility in water entry in “Solubility in water” was “high solubility in water”. Regarding NGRKAKLNPASIVKKIIKKILKS [NF27], the “toxicity against healthy cells compared to cancer cells” value with healthy cells is recorded as “significantly lower toxicity”.

Source of the values: US20260356901A1, “ONCOLYTIC PEPTIDES” (The Johns Hopkins University, priority 2023, published 2026).
